This assay is described as follows: Inhibition of ribonuclease A.

Consider `Nc1ncnc2c1ncn2[C@@H]1O[C@H](COP(=O)(O)OP(=O)(O)OC2CC(n3ccc(=O)[nH]c3=O)OC2CO)[C@@H](O)[C@H]1O` (some centres not stated), for which affinity was put at a Ki of 11.3 µM.

In turn, `Nc1ncnc2c1ncn2[C@@H]1O[C@H](COP(=O)(O)OP(=O)(O)O[C@H]2C[C@H](n3ccc(=O)[nH]c3=O)O[C@@H]2COP(=O)(O)O)[C@@H](OP(=O)(O)O)[C@H]1O` gave a Ki of 0.027 µM.

A word on the Ki: it is a measure of affinity in units of concentration, obtained from inhibition or displacement. A low value points to higher affinity.

The values are drawn from ChEMBL document CHEMBL1141314, “SAR index: quantifying the nature of structure-activity relationships” (J Med Chem, 2007).
